This data set concerns human patient. The following applies: sodium nitrite in phosphate buffered saline infused at 1 micromole per minute, begun before red blood cell transfusion.

`O=NO` [sodium nitrite]: the “adverse effect of red blood cell transfusion” value is “without adverse effect”.

Values taken from patent US8075922B2, “Method of co-infusing a deoxygenated hemoglobin containing blood substitute and inorganic nitrite” (Montana State University-Bozeman, priority 2002, dated 2011).
